Results as given in the kinase profiling compilation of Christmann-Franck et al. (2016).

Key:
Assay in all cases: KINOMEscan competition binding
[1] = target: ACVR2A (human) (UniProt P27037); conditions: compound 10.0 µM
[2] = target: AURKB (human) (UniProt Q96GD4); conditions: compound 10.0 µM
[3] = target: BMP2K (human) (UniProt Q9NSY1); conditions: compound 10.0 µM
[4] = target: BMPR1B (human) (UniProt O00238); conditions: compound 10.0 µM
[5] = target: CDK7 (human) (UniProt P50613); conditions: compound 10.0 µM
[6] = target: CSNK1E (human) (UniProt P49674); conditions: compound 10.0 µM
[7] = target: CSNK1G1 (human) (UniProt Q9HCP0); conditions: compound 10.0 µM
[8] = target: CSNK2A1 (human) (UniProt P68400); conditions: for kinase still bound, per cent of control: compound 10.0 µM
[9] = target: CSNK2A2 (human) (UniProt P19784); conditions: for kinase still bound, per cent of control: compound 10.0 µM
[10] = target: DAPK2 (human) (UniProt Q9UIK4); conditions: for kinase still bound, per cent of control: compound 10.0 µM
[11] = target: DAPK3 (human) (UniProt O43293); conditions: compound 10.0 µM
[12] = target: DYRK1B (human) (UniProt Q9Y463); conditions: compound 10.0 µM
[13] = tested on: EGFR (human), P00533 [747-751 del / S ins]; conditions: compound 10.0 µM
[14] = tested on: EGFR (human), P00533 [G719S]; conditions: compound 10.0 µM
[15] = tested on: FLT3 (human), P36888 [N841I]; conditions: compound 10.0 µM
[16] = target: GAK (human) (UniProt O14976); conditions: compound 10.0 µM
[17] = target: KIT (human) (UniProt P10721); conditions: compound 10.0 µM
[18] = tested on: KIT (human), P10721 [D816V]; conditions: compound 10.0 µM
[19] = tested on: KIT (human), P10721 [V559D/V654A]; conditions: compound 10.0 µM
[20] = tested on: KIT (human), P10721 [V559D]; conditions: compound 10.0 µM
[21] = target: MAP2K4 (human) (UniProt P45985); conditions: compound 10.0 µM
[22] = target: MAP4K4 (human) (UniProt O95819); conditions: compound 10.0 µM
[23] = target: MAPK15 (human) (UniProt Q8TD08); conditions: for kinase still bound, per cent of control: compound 10.0 µM
[24] = target: MINK1 (human) (UniProt Q8N4C8); conditions: compound 10.0 µM
[25] = target: MYLK (human) (UniProt Q15746); conditions: compound 10.0 µM
[26] = target: PHKG2 (human) (UniProt P15735); conditions: compound 10.0 µM
[27] = target: PIK3CG (human) (UniProt P48736); conditions: compound 10.0 µM
[28] = target: PIM2 (human) (UniProt Q9P1W9); conditions: compound 10.0 µM
[29] = target: PIM3 (human) (UniProt Q86V86); conditions: for kinase still bound, per cent of control: compound 10.0 µM
[30] = target: PIP4K2B (human) (UniProt P78356); conditions: compound 10.0 µM
[31] = target: RIOK1 (human) (UniProt Q9BRS2); conditions: compound 10.0 µM
[32] = target: RIOK2 (human) (UniProt Q9BVS4); conditions: compound 10.0 µM
[33] = target: RPS6KA2 KD2 (human) (UniProt Q15349); conditions: compound 10.0 µM
[34] = target: RPS6KA5 KD2 (human) (UniProt O75582); conditions: compound 10.0 µM
[35] = target: SRPK2 (human) (UniProt P78362); conditions: compound 10.0 µM
[36] = target: SRPK3 (human) (UniProt Q9UPE1); conditions: compound 10.0 µM
[37] = target: STK17B (human) (UniProt O94768); conditions: for kinase still bound, per cent of control: compound 10.0 µM
[38] = target: STK24 (human) (UniProt Q9Y6E0); conditions: compound 10.0 µM
[39] = target: TAOK1 (human) (UniProt Q7L7X3); conditions: compound 10.0 µM
[40] = target: TLK1 (human) (UniProt Q9UKI8); conditions: compound 10.0 µM
[41] = target: TNIK (human) (UniProt Q9UKE5); conditions: compound 10.0 µM
[42] = target: TTK (human) (UniProt P33981); conditions: compound 10.0 µM

Chain of MAP2K4 (human) (P45985 whole entry, looked up): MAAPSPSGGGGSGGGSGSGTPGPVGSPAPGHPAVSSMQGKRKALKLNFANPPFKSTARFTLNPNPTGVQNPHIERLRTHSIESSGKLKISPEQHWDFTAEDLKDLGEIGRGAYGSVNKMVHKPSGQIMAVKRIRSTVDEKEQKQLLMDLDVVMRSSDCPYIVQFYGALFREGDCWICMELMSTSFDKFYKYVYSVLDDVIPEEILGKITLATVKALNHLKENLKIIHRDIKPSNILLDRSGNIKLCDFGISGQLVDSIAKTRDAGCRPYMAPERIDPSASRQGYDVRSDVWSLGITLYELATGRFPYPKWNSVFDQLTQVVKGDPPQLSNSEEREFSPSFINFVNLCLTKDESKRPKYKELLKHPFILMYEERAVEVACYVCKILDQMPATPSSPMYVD
Chain of KIT (human), P10721 [V559D/V654A] (P10721 whole entry V559D/V654A, looked up): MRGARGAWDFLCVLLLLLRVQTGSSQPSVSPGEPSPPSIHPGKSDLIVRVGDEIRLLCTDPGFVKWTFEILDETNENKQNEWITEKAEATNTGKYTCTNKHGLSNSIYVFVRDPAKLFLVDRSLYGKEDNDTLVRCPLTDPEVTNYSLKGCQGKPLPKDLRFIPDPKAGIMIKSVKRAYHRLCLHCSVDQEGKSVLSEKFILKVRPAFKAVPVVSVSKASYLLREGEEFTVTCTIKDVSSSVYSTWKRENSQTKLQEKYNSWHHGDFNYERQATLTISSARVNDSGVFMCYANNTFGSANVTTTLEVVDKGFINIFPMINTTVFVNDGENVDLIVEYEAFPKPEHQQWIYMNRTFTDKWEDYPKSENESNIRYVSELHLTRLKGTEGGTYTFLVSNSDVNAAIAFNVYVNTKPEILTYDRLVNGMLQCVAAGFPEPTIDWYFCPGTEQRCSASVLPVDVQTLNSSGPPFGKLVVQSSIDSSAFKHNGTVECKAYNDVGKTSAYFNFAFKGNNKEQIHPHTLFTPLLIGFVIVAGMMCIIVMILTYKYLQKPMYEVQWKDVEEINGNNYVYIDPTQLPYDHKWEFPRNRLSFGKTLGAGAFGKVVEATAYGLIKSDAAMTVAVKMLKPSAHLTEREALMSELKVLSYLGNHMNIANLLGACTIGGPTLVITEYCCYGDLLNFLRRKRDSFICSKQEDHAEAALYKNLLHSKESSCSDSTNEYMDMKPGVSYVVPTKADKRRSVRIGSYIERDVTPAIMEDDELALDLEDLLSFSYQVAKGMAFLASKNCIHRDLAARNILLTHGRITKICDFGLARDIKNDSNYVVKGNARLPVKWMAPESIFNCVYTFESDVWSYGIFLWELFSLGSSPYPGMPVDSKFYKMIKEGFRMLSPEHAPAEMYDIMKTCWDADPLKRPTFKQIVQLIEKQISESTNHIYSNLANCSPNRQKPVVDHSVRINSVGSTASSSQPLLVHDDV
Chain of MAPK15 (human) (Q8TD08 whole entry, looked up): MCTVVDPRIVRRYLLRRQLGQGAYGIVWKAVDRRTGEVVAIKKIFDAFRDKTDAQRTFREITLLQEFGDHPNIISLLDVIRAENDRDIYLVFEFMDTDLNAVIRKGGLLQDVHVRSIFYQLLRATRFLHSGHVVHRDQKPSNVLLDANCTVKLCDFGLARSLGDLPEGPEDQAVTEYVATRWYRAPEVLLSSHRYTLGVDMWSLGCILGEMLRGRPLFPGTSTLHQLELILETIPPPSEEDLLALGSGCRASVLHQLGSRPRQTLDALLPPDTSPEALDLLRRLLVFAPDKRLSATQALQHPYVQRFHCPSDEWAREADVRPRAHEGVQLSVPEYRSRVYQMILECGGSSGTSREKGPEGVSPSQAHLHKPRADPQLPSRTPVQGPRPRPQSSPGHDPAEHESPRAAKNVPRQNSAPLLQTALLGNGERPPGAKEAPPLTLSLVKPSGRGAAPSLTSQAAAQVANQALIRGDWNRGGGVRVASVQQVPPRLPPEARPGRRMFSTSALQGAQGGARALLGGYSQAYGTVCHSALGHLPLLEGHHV
Chain of RPS6KA2 KD2 (human) (Q15349 whole entry, looked up): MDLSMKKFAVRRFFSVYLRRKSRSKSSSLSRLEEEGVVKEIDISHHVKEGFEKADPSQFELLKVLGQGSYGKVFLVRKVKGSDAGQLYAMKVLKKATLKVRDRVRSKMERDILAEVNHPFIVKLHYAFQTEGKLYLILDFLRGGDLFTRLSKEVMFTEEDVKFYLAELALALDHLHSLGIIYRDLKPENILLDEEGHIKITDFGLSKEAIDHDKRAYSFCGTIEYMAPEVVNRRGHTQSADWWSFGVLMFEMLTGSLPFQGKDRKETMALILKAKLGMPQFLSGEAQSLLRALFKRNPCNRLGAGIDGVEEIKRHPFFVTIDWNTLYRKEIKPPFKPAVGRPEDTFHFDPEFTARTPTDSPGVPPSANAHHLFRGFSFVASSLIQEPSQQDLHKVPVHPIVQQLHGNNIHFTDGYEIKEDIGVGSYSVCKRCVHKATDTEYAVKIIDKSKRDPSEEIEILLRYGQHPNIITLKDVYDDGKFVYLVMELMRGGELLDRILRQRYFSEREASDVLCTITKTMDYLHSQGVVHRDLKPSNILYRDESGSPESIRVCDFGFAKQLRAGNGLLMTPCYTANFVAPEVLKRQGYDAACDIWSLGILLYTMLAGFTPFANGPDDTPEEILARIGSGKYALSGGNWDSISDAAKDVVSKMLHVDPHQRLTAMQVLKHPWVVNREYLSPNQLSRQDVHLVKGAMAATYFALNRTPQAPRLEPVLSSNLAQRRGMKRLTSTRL
Chain of RIOK1 (human) (Q9BRS2 whole entry, looked up): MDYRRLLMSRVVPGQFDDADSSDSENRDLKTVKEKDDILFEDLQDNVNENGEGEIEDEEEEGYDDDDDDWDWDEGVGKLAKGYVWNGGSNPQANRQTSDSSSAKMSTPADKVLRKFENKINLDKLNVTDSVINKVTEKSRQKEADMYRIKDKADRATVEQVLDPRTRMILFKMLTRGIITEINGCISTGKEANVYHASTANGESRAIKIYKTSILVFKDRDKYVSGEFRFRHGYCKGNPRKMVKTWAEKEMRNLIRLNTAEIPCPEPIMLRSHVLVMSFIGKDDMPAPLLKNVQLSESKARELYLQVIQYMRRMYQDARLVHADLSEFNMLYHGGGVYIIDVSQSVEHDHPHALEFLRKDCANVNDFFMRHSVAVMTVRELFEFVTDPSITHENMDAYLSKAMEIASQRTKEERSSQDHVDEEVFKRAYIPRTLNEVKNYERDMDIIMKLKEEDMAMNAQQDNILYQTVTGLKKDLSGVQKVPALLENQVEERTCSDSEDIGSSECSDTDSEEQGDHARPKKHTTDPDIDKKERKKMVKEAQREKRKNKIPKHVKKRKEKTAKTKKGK
Chain of DAPK2 (human) (Q9UIK4 whole entry, looked up): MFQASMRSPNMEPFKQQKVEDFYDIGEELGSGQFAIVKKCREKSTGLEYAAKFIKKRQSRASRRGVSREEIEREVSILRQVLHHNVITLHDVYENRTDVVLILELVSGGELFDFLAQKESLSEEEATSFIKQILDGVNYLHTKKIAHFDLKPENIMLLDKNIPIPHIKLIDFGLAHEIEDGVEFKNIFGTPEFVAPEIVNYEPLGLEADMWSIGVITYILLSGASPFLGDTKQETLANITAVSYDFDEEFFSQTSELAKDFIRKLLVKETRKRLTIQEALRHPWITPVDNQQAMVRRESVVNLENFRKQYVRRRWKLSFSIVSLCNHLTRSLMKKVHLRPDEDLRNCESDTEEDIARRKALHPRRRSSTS
Chain of CSNK2A2 (human) (P19784 whole entry, looked up): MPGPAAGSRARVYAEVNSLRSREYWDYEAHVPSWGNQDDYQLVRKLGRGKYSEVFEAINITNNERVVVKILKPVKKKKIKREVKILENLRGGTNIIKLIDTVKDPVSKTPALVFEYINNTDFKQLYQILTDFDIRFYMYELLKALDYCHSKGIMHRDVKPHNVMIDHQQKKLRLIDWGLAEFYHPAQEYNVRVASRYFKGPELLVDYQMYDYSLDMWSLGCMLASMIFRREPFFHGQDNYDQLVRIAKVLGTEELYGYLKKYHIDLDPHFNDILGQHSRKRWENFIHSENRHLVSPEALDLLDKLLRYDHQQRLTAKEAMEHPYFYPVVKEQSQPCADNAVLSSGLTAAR
Chain of DAPK3 (human) (O43293 whole entry, looked up): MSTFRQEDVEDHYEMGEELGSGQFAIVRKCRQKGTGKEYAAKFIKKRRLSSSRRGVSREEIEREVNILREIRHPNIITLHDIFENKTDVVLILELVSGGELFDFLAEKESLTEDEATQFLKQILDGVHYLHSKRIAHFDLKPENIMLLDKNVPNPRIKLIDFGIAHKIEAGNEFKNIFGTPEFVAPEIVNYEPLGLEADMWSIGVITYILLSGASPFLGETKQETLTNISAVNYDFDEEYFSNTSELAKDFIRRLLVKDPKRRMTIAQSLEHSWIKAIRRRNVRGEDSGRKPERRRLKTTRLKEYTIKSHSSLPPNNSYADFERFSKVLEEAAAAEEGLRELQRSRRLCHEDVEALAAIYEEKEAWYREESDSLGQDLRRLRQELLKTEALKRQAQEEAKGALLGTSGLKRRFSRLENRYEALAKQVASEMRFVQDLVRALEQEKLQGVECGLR
Chain of KIT (human) (P10721 whole entry, looked up): as the sequence (P10721 whole entry V559D/V654A, looked up) above, with D559V, A654V counted along it
Chain of PIM2 (human) (Q9P1W9 whole entry, looked up): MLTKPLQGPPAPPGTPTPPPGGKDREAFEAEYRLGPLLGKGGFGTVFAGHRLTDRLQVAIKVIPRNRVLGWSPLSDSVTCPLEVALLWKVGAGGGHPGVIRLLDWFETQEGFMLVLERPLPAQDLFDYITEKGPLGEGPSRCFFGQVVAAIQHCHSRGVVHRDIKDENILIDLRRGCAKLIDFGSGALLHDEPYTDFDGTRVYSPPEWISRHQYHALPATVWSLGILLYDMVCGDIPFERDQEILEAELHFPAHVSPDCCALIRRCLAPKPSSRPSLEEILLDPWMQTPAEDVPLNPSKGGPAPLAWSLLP
Chain of KIT (human), P10721 [D816V] (P10721 whole entry D816V, looked up): as the sequence (P10721 whole entry V559D/V654A, looked up) above, with D559V, A654V, D816V counted along it
Chain of KIT (human), P10721 [V559D] (P10721 whole entry V559D, looked up): as the sequence (P10721 whole entry V559D/V654A, looked up) above, with A654V counted along it

O=C1NC(=O)/C(=C/c2c[nH]c(=O)c(-c3ccc(N4CCNCC4)nc3)c2)S1
kinase still bound, per cent of control [1]: 76%
kinase still bound, per cent of control [2]: 71%
kinase still bound, per cent of control [3]: 2%
kinase still bound, per cent of control [4]: 4.8%
kinase still bound, per cent of control [5]: 5.6%
kinase still bound, per cent of control [6]: 11%
kinase still bound, per cent of control [7]: 35%
Kd [8]: 31 nM
kinase still bound, per cent of control [8]: 0.65%
Kd [9]: 6.1 nM
kinase still bound, per cent of control [9]: 0%
Kd [10]: 6.1 nM
kinase still bound, per cent of control [10]: 0.5%
kinase still bound, per cent of control [11]: 1%
kinase still bound, per cent of control [12]: 3%
kinase still bound, per cent of control [13]: 85%
kinase still bound, per cent of control [14]: 58%
kinase still bound, per cent of control [15]: 67%
kinase still bound, per cent of control [16]: 3.2%
kinase still bound, per cent of control [17]: 82%
kinase still bound, per cent of control [18]: 76%
kinase still bound, per cent of control [19]: 99%
kinase still bound, per cent of control [20]: 70%
kinase still bound, per cent of control [21]: 57%
kinase still bound, per cent of control [22]: 4.9%
Kd [23]: 390 nM
kinase still bound, per cent of control [23]: 0.5%
kinase still bound, per cent of control [24]: 42%
kinase still bound, per cent of control [25]: 42%
kinase still bound, per cent of control [26]: 6.6%
kinase still bound, per cent of control [27]: 0.3%
kinase still bound, per cent of control [28]: 1.1%
Kd [29]: 3.7 nM
kinase still bound, per cent of control [29]: 0.65%
kinase still bound, per cent of control [30]: 1.1%
kinase still bound, per cent of control [31]: 5%
kinase still bound, per cent of control [32]: 66%
kinase still bound, per cent of control [33]: 1.2%
kinase still bound, per cent of control [34]: 59%
kinase still bound, per cent of control [35]: 10%
kinase still bound, per cent of control [36]: 6%
Kd [37]: 130 nM
kinase still bound, per cent of control [37]: 0.15%
kinase still bound, per cent of control [38]: 71%
kinase still bound, per cent of control [39]: 24%
kinase still bound, per cent of control [40]: 66%
kinase still bound, per cent of control [41]: 11%
kinase still bound, per cent of control [42]: 59%

COc1cc(N2CCC(O)CC2)ccc1Nc1ncc2c(n1)N1CCc3cccc(c31)C(=O)N2C
kinase still bound, per cent of control [1]: 100%
kinase still bound, per cent of control [2]: 100%
kinase still bound, per cent of control [3]: 84%
kinase still bound, per cent of control [4]: 88%
kinase still bound, per cent of control [5]: 83%
kinase still bound, per cent of control [6]: 92%
kinase still bound, per cent of control [7]: 100%
kinase still bound, per cent of control [8]: 100%
kinase still bound, per cent of control [9]: 67%
kinase still bound, per cent of control [10]: 36%
kinase still bound, per cent of control [11]: 37%
kinase still bound, per cent of control [12]: 54%
kinase still bound, per cent of control [13]: 64%
kinase still bound, per cent of control [14]: 76%
kinase still bound, per cent of control [15]: 93%
kinase still bound, per cent of control [16]: 12%
kinase still bound, per cent of control [17]: 91%
kinase still bound, per cent of control [18]: 76%
kinase still bound, per cent of control [19]: 100%
kinase still bound, per cent of control [20]: 93%
kinase still bound, per cent of control [21]: 82%
kinase still bound, per cent of control [22]: 57%
kinase still bound, per cent of control [23]: 100%
kinase still bound, per cent of control [24]: 60%
kinase still bound, per cent of control [25]: 16%
kinase still bound, per cent of control [26]: 68%
kinase still bound, per cent of control [27]: 28%
kinase still bound, per cent of control [28]: 100%
kinase still bound, per cent of control [29]: 92%
kinase still bound, per cent of control [30]: 100%
kinase still bound, per cent of control [31]: 100%
kinase still bound, per cent of control [32]: 100%
kinase still bound, per cent of control [33]: 23%
kinase still bound, per cent of control [34]: 62%
kinase still bound, per cent of control [35]: 100%
kinase still bound, per cent of control [36]: 89%
kinase still bound, per cent of control [37]: 100%
kinase still bound, per cent of control [38]: 84%
kinase still bound, per cent of control [39]: 60%
kinase still bound, per cent of control [40]: 91%
kinase still bound, per cent of control [41]: 48%
kinase still bound, per cent of control [42]: 6.1%

O=C1NC(=S)S/C1=C\c1ccc(-c2cncc3ccccc23)o1
kinase still bound, per cent of control [2]: 27%
kinase still bound, per cent of control [3]: 0.4%
kinase still bound, per cent of control [6]: 7%
kinase still bound, per cent of control [8]: 3.2%
kinase still bound, per cent of control [9]: 5.6%
kinase still bound, per cent of control [10]: 9.3%
kinase still bound, per cent of control [11]: 7.4%
kinase still bound, per cent of control [12]: 13%
kinase still bound, per cent of control [14]: 27%
kinase still bound, per cent of control [15]: 4%
kinase still bound, per cent of control [16]: 1.3%
kinase still bound, per cent of control [17]: 21%
kinase still bound, per cent of control [18]: 9.6%
kinase still bound, per cent of control [19]: 23%
kinase still bound, per cent of control [20]: 26%
kinase still bound, per cent of control [21]: 20%
kinase still bound, per cent of control [22]: 25%
kinase still bound, per cent of control [23]: 9%
kinase still bound, per cent of control [24]: 33%
kinase still bound, per cent of control [26]: 8.1%
kinase still bound, per cent of control [27]: 16%
kinase still bound, per cent of control [28]: 0.55%
kinase still bound, per cent of control [29]: 2.7%
kinase still bound, per cent of control [30]: 5.5%
kinase still bound, per cent of control [31]: 3.7%
kinase still bound, per cent of control [32]: 3.4%
kinase still bound, per cent of control [33]: 6.2%
kinase still bound, per cent of control [35]: 32%
kinase still bound, per cent of control [36]: 14%
kinase still bound, per cent of control [37]: 0.25%
kinase still bound, per cent of control [38]: 12%
kinase still bound, per cent of control [40]: 5.8%
kinase still bound, per cent of control [41]: 11%
kinase still bound, per cent of control [42]: 17%
